pIC50: −log10 of the molar value.
Key:
Assay type in all cases: biochemical
CDK4/cyclin D1 = CDK4/cyclin D1 (Homo sapiens (Human), UniProt P11802); assay: CDK4/Cyclin D1 enzymatic activity assay (Lance TR-FRET); conditions: Table 2; 3 μM ATP; read-out: CDK4
Procedure: A 384-well microtiter Lance TR-FRET (time-resolved-fluorescence energy transfer) endpoint assay was used for CDK4/cyclin D1 kinase activity measurements. The same assay was used for IC50 determination of small molecule inhibitors. In general, the kinase reactions were carried out in 30 μL volumes in the reaction solution containing the following: 2 uL compound (in […]), 18 uL CDK4/cyclin D1 in Assay Buffer (50 mM HEPES, pH 7.5, 5 mM MgCl2, 2 mM MnCl2, 1 mM DTT, 0.05% BSA, 0.02% Tween-20), 10 uL of the mixture of pRb152 and ATP. The final reaction mixture contains compound (inhibitor) with the concentration varying from 0.005-10 μM, 2% DMSO, 0.3 nM CDK4/cyclin D1, 175 nM pRb152, and 3 μM ATP (Amersham Pharmacia, Cat. No. 27-2056-01). All reactions were run at room temperature in 384-well white flat-bottom OptiPlates (Perkin Elmer, Cat. No. 6007290) for 60 min then were quenched by the addition of 10 μL of 120 mM EDTA. The signals were captured by the addition of 40 μL of the Detection Solution containing the following: Detection Buffer (50 mM HEPES, pH 7.5, 30 mM EDTA, 0.1% Triton x-100, 0.05% BSA), 70 ng/mL anti-phospho-pRb(S780) (Cell Signaling Technology, Cat. No. 9307S), 1 nM Lance Eu-W1024-Rabbit anti-IgG (Perkin Elmer, Cat. No. AD0082), and 20 nM SureLight™ Allophycocyanin-Streptavidin (Perkin Elmer, Cat. No. CR130-100). The resulted solutions were incubated at room temperature for 2 hours before read on the Evision Multilabel Reader (Perkin Elmer, Envision 2102-0010).
CDk4/cyclin D1 recombinant protein used in the enzymatic activity assay was prepared by coexpressing pDEST10-CDK4 (N-terminal His6) and pFastBacDual-GST-hCyclinDl viruses in Sf21 cells.

CDK2/cyclin A = CDK2/cyclin A (Homo sapiens (Human), UniProt P24941); assay: CDK2/Cyclin A enzymatic activity assay (IMAP-FP); conditions: Table 2; read-out: CDK2
CDK1/cyclin B = CDK1/cyclin B (Homo sapiens (Human), UniProt P06493); assay: CDK1/Cyclin B enzymatic activity assay (IMAP-FP); conditions: Table 2; 20 μM ATP; read-out: CDK1
From the text: A 384-well microtiter IMAP-FPT™ (Molecular Devices Trade Mark Technology) endpoint assay was used for CDK1/cyclin B kinase activity measurements. The same assay was used for IC50 determination of small molecule inhibitors.

Sequence of CDK4/cyclin D1 (P11802 whole entry): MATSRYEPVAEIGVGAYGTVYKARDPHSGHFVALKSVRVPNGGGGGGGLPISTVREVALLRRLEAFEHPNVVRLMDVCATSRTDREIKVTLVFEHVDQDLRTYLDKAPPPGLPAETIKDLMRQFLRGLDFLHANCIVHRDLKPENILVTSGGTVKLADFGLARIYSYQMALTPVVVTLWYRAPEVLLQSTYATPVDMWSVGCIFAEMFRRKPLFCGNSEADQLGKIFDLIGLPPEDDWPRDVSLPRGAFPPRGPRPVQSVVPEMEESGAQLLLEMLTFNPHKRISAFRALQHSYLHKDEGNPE
Sequence of CDK4/cyclin D1 (P24385 whole entry partner): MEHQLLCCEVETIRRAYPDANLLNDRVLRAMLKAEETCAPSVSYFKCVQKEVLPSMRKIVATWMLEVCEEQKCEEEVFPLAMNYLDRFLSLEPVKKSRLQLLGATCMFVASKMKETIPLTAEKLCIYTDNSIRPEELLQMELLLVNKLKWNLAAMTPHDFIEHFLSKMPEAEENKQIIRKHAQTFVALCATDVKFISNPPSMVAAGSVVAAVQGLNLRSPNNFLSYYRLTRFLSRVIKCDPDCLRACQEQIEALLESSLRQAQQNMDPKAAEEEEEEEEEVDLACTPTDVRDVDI
Sequence of CDK1/cyclin B (P06493 whole entry, species assumed): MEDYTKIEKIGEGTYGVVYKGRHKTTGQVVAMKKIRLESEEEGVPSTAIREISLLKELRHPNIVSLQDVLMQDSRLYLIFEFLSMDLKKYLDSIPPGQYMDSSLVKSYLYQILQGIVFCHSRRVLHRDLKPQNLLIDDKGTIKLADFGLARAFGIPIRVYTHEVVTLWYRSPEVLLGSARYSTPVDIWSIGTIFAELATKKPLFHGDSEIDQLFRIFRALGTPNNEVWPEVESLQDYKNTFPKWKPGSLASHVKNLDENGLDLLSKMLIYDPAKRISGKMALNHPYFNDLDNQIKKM
Sequence of CDK1/cyclin B (P14635 whole entry partner, species assumed): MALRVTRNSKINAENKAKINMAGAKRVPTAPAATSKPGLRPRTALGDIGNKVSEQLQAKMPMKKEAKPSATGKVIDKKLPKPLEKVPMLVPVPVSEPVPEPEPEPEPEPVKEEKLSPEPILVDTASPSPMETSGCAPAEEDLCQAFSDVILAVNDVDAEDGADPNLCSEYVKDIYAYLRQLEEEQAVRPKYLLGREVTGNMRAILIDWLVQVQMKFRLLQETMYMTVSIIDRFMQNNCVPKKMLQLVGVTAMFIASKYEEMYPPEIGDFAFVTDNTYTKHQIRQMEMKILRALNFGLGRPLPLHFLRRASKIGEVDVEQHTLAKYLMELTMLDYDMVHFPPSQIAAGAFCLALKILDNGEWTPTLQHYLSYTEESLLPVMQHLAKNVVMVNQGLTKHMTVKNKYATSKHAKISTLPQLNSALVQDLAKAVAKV

C[C@@H](O)CN1CCN(c2ccc(Nc3ncc4cc(C(=O)N(C)C)n(C5CCCC5)c4n3)nc2)CC1 [Example 57, 7-Cyclopentyl-2-{5-[4-((R)-2-hydroxy-propyl)-piperazin-1-yl]-pyridin-2-ylamino}-7H-pyrrolo[2,3-d]pyrimidine-6-carboxylic acid dimethylamide] gave a pIC50 (CDK4/cyclin D1) of 7.00 to 8.00, a pIC50 (CDK2/cyclin A) of less than 4.82 and a pIC50 (CDK1/cyclin B) of less than 4.82.
Compound C[C@H]1CN(Cc2ccc(Nc3ncc4cc(C(=O)N(C)C)n(C5CCCC5)c4n3)nc2)CCN1 [Example 55, 7-Cyclopentyl-2-[5-((S)-3-methyl-piperazin-1-ylmethyl)-pyridin-2-ylamino]-7H-pyrrolo[2,3-d]pyrimidine-6-carboxylic acid dimethylamide] has a pIC50 (CDK4/cyclin D1) of 7.00 to 8.00, a pIC50 (CDK2/cyclin A) of less than 4.82 and a pIC50 (CDK1/cyclin B) of less than 4.82.
With CN(C)C(=O)c1cc2cnc(Nc3ccc(N(C)CCO)cn3)nc2n1C1CCCC1 [Example 83, 7-Cyclopentyl-2-{5-[(2-hydroxy-ethyl)-methyl-amino]-pyridin-2-ylamino}-7H-pyrrolo[2,3-d]pyrimidine-6-carboxylic acid dimethylamide] the pIC50 (CDK4/cyclin D1) was 6.00 to 7.00, the pIC50 (CDK2/cyclin A) was less than 4.82 and the pIC50 (CDK1/cyclin B) was less than 4.82.
C[C@@H]1CN(c2ccc(Nc3ncc4cc(C(=O)N(C)C)n(C5CCCC5)c4n3)nc2)CCN1CCO [Example 81, 7-Cyclopentyl-2-{5-[(R)-4-(2-hydroxy-ethyl)-3-methyl-piperazin-1-yl]-pyridin-2-ylamino}-7H-pyrrolo[2,3-d]pyrimidine-6-carboxylic acid dimethylamide] gave a pIC50 (CDK4/cyclin D1) of 7.00 to 8.00, a pIC50 (CDK2/cyclin A) of less than 4.82 and a pIC50 (CDK1/cyclin B) of less than 4.82.
Work on CN(C)C(=O)c1cc2cnc(Nc3ccc(C(=O)N4CCN(CCO)CC4)cn3)nc2n1C1CCCC1 [Example 96, 7-Cyclopentyl-2-{5-[4-(2-hydroxy-ethyl)-piperazine-1-carbonyl]-pyridin-2-ylamino}-7H-pyrrolo[2,3-d]pyrimidine-6-carboxylic acid dimethylamide] yielded a pIC50 (CDK4/cyclin D1) of 7.00 to 8.00, a pIC50 (CDK2/cyclin A) of less than 4.82 and a pIC50 (CDK1/cyclin B) of less than 4.82.
Work on CC(CO)N1CCN(c2ccc(Nc3ncc4cc(C(=O)N(C)C)n(C5CCCC5)c4n3)nc2)CC1 (stereo not drawn) [Example 36, 7-Cyclopentyl-2-{5-[4-(2-hydroxy-1-methyl-ethyl)-piperazin-1-yl]-pyridin-2-ylamino}-7H-pyrrolo[2,3-d]pyrimidine-6-carboxylic acid dimethylamide] yielded a pIC50 (CDK4/cyclin D1) of 7.00 to 8.00, a pIC50 (CDK2/cyclin A) of less than 4.82 and a pIC50 (CDK1/cyclin B) of less than 4.82.
Compound CC1CN(c2ccc(Nc3ncc4cc(C(=O)N(C)C)n(C5CCCC5)c4n3)nc2)CC(C)N1 (stereo not drawn) [Example 24, 7-Cyclopentyl-2-[5-(3,5-dimethyl-piperazin-1-yl)-pyridin-2-ylamino]-7H-pyrrolo[2,3-d]pyrimidine-6-carboxylic acid dimethylamide] has a pIC50 (CDK4/cyclin D1) of 7.00 to 8.00, a pIC50 (CDK2/cyclin A) of less than 4.82 and a pIC50 (CDK1/cyclin B) of less than 4.82.
In the case of CN(C)C(=O)c1cc2cnc(Nc3ccc(N4CCC(O)CC4)cn3)nc2n1C1CCCC1 [Example 20, 7-Cyclopentyl-2-(4-hydroxy-3,4,5,6-tetrahydro-2H-[1,3′]bipyridinyl-6′-ylamino)-7H-pyrrolo[2,3-d]pyrimidine-6-carboxylic acid dimethylamide], the pIC50 (CDK4/cyclin D1) was 7.00 to 8.00, the pIC50 (CDK2/cyclin A) was less than 4.82 and the pIC50 (CDK1/cyclin B) was less than 4.82.
CN(C)C(=O)c1cc2cnc(Nc3ccc(C(=O)N4CCC(N(C)C)CC4)cn3)nc2n1C1CCCC1 [Example 50, 7-Cyclopentyl-2-[5-(4-dimethylamino-piperidine-1-carbonyl)-pyridin-2-ylamino]-7H-pyrrolo[2,3-d]pyrimidine-6-carboxylic acid dimethylamide] showed a pIC50 (CDK4/cyclin D1) of 7.00 to 8.00, a pIC50 (CDK2/cyclin A) of less than 4.82 and a pIC50 (CDK1/cyclin B) of less than 4.82.
CN(C)C(=O)c1cc2cnc(Nc3ccc(N4CCN(CC(N)=O)CC4)cn3)nc2n1C1CCCC1 [Example 10, 2-[5-(4-Carbamoylmethyl-piperazin-1-yl)-pyridin-2-ylamino]-7-cyclopentyl-7H-pyrrolo[2,3-d]pyrimidine-6-carboxylic acid dimethylamide] gave a pIC50 (CDK4/cyclin D1) of 7.00 to 8.00, a pIC50 (CDK2/cyclin A) of less than 4.82 and a pIC50 (CDK1/cyclin B) of less than 4.82.
Work on CN(C)C(=O)c1cc2cnc(Nc3ccc(N4CCC(N)C4)cn3)nc2n1C1CCCC1 (racemic) [Example 13, Rac-2-[5-(3-Amino-pyrrolidin-1-yl)-pyridin-2-ylamino]-7-cyclopentyl-7H-pyrrolo[2,3-d]pyrimidine-6-carboxylic acid dimethylamide] yielded a pIC50 (CDK4/cyclin D1) of 7.00 to 8.00, a pIC50 (CDK2/cyclin A) of less than 4.82 and a pIC50 (CDK1/cyclin B) of less than 4.82.
CN(C)C(=O)c1cc2cnc(Nc3ccc(CN4CCC(O)CC4)cn3)nc2n1C1CCCC1 [Example 76, 7-Cyclopentyl-2-[5-(4-hydroxy-piperidin-1-ylmethyl)-pyridin-2-ylamino]-7H-pyrrolo[2,3-d]pyrimidine-6-carboxylic acid dimethylamide] gave a pIC50 (CDK4/cyclin D1) of 7.00 to 8.00, a pIC50 (CDK2/cyclin A) of less than 4.82 and a pIC50 (CDK1/cyclin B) of less than 4.82.
CN(C)C(=O)c1cc2cnc(Nc3ccc(N4CCOCC4)cn3)nc2n1C1CCCC1 [Example 110, 7-Cyclopentyl-2-(5-morpholin-4-yl-pyridin-2-ylamino)-7H-pyrrolo[2,3-d]pyrimidine-6-carboxylic acid dimethylamide] gave a pIC50 (CDK4/cyclin D1) of 6.00 to 7.00, a pIC50 (CDK2/cyclin A) of less than 4.82 and a pIC50 (CDK1/cyclin B) of less than 4.82.
With CN(C)C(=O)c1cc2cnc(Nc3ccc(C4CCNCC4)cn3)nc2n1C1CCCC1 [Example 52, 7-Cyclopentyl-2-(1′,2′,3′,4′,5′,6-hexahydro-[3,4]bipyridinyl-6-ylamino)-7H-pyrrolo[2,3-d]pyrimidine-6-carboxylic acid dimethylamide] the pIC50 (CDK4/cyclin D1) was 7.00 to 8.00, the pIC50 (CDK2/cyclin A) was less than 4.82 and the pIC50 (CDK1/cyclin B) was less than 4.82.
COCCN1CCN(c2ccc(Nc3ncc4cc(C(=O)N(C)C)n(C5CCCC5)c4n3)nc2)CC1 [Example 14, 7-Cyclopentyl-2-{5-[4-(2-methoxy-ethyl)-piperazin-1-yl]-pyridin-2-ylamino}-7H-pyrrolo[2,3-d]pyrimidine-6-carboxylic acid dimethylamide] showed a pIC50 (CDK4/cyclin D1) of 7.00 to 8.00, a pIC50 (CDK2/cyclin A) of less than 4.82 and a pIC50 (CDK1/cyclin B) of less than 4.82.
CNC(=O)c1cc2cnc(Nc3ccc(N4CCN(C(C)C)CC4)cn3)nc2n1C1CCCC1 [Example 51, 7-Cyclopentyl-2-[5-(4-isopropyl-piperazin-1-yl)-pyridin-2-ylamino]-7H-pyrrolo[2,3-d]pyrimidine-6-carboxylic acid methylamide] was tested, and the pIC50 (CDK4/cyclin D1) was 7.00 to 8.00, the pIC50 (CDK2/cyclin A) was less than 4.82 and the pIC50 (CDK1/cyclin B) was less than 4.82.
Compound CN(C)C(=O)c1cc2cnc(Nc3ccccn3)nc2n1C1CCCC1 [Example 1, 7-Cyclopentyl-2-(pyridin-2-ylamino)-7H-pyrrolo[2,3-d]pyrimidine-6-carboxylic acid dimethylamide] has a pIC50 (CDK4/cyclin D1) of 6.00 to 7.00, a pIC50 (CDK2/cyclin A) of less than 4.82 and a pIC50 (CDK1/cyclin B) of less than 4.82.
With CN(C)C(=O)c1cc2cnc(Nc3ccc(N4CCN(C(=O)N5CCOCC5)CC4)cn3)nc2n1C1CCCC1 [Example 38, 7-Cyclopentyl-2-{5-[4-(morpholine-4-carbonyl)-piperazin-1-yl]-pyridin-2-ylamino}-7H-pyrrolo[2,3-d]pyrimidine-6-carboxylic acid dimethylamide] the pIC50 (CDK4/cyclin D1) was 7.00 to 8.00, the pIC50 (CDK2/cyclin A) was less than 4.82 and the pIC50 (CDK1/cyclin B) was less than 4.82.
CN(C)C(=O)c1cc2cnc(Nc3ccc(N4CCN(C(=O)N5CCCCC5)CC4)cn3)nc2n1C1CCCC1 [Example 94, 7-Cyclopentyl-2-{5-[4-(piperidine-1-carbonyl)-piperazin-1-yl]-pyridin-2-ylamino}-7H-pyrrolo[2,3-d]pyrimidine-6-carboxylic acid dimethylamide] showed a pIC50 (CDK4/cyclin D1) of 7.00 to 8.00, a pIC50 (CDK2/cyclin A) of less than 4.82 and a pIC50 (CDK1/cyclin B) of less than 4.82.
In the case of CN(C)C(=O)c1cc2cnc(Nc3ccc(N4CC(O)C4)cn3)nc2n1C1CCCC1 [Example 32, 7-Cyclopentyl-2-[5-(3-hydroxy-azetidin-1-yl)-pyridin-2-ylamino]-7H-pyrrolo[2,3-d]pyrimidine-6-carboxylic acid dimethylamide], the pIC50 (CDK4/cyclin D1) was 7.00 to 8.00, the pIC50 (CDK2/cyclin A) was less than 4.82 and the pIC50 (CDK1/cyclin B) was less than 4.82.
With CN(C)C(=O)c1cc2cnc(Nc3ccc(N4CCNC(=O)C4)cn3)nc2n1C1CCCC1 [Example 4, 7-Cyclopentyl-2-[5-(3-oxo-piperazin-1-yl)-pyridin-2-ylamino]-7H-pyrrolo[2,3-d]pyrimidine-6-carboxylic acid dimethylamide] the pIC50 (CDK4/cyclin D1) was 7.00 to 8.00, the pIC50 (CDK2/cyclin A) was less than 4.82 and the pIC50 (CDK1/cyclin B) was less than 4.82.
With CC(C)CN1CCN(c2ccc(Nc3ncc4cc(C(=O)N(C)C)n(C5CCCC5)c4n3)nc2)CC1 [Example 92, 7-Cyclopentyl-2-[5-(4-isobutyl-piperazin-1-yl)-pyridin-2-ylamino]-7H-pyrrolo[2,3-d]pyrimidine-6-carboxylic acid dimethylamide] the pIC50 (CDK4/cyclin D1) was 8.00 to 9.00, the pIC50 (CDK2/cyclin A) was less than 4.82 and the pIC50 (CDK1/cyclin B) was less than 4.82.
